# Measured values taken from PMC2800054 (Journal of medicinal chemistry, 2008).
# What was measured:
# [1] = target: T1, MbtA (Mycobacterium tuberculosis, UniProt P71716); assay type: biochemical; settings: for fold increase in potency / binding affinity (KI^app) relative to 6 / fold loss of potency (KI^app) relative to 6: relative to parent compound 6
# [2] = cited from earlier work
# [3] = tested on: protein synthesis; settings: read-out: IC50 (inhibition of protein synthesis); in vitro protein translation assay
# [4] = cited from earlier work; remark: listed apart in the source
# [5] = target: T1, MbtA; settings: cited from earlier work; for ΔG^0 (free energy of binding): acyladenylate fragments
# [6] = tested on: M. tuberculosis H37Rv; test: M. tuberculosis H37Rv MIC assay; assay type: cell-based, Mycobacterium tuberculosis; settings: ratio of selectivity factors
# [7] = target: cysteine adenylation domain in the multifunctional NRPS module known as HMWP2; settings: read-out: Ki^app; cited from earlier work
# [8] = target: T1, MbtA; assay type: binding; settings: ITC
# [9] = tested on: M. tuberculosis H37Rv; settings: under the assay conditions; positive control; cited from earlier work
# [10] = saturating salicylic acid, 298 K
# T1 sequence (P71716 whole entry): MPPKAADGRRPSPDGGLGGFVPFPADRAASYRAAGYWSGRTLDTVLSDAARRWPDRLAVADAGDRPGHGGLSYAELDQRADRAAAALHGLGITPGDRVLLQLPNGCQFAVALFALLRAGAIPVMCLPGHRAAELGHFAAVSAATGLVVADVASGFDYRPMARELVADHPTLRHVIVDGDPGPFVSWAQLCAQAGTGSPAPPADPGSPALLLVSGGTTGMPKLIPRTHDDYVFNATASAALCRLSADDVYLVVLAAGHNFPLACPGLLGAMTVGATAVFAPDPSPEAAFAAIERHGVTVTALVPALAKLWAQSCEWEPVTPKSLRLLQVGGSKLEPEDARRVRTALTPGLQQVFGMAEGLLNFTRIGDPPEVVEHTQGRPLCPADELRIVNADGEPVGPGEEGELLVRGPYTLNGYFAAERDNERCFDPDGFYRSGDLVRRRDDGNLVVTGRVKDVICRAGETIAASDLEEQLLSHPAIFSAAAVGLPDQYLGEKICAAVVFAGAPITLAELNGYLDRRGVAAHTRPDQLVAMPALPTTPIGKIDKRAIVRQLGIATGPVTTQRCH
compound,measurement,setting,value
"CCN(CC)CC.Nc1nc(Nc2ccccc2)nc2c1ncn2[C@@H]1O[C@H](COS(=O)(=O)NC(=O)c2ccccc2O)[C@@H](O)[C@H]1O [Compound 24, 2-Anilino-5′-O-[N-(2-hydroxybenzoyl)sulfamoyl]adenosine Triethylammonium Salt]",fold increase in potency / binding affinity (KI^app) relative to 6,[1],7 fold
"CCN(CC)CC.Nc1nc(I)nc2c1ncn2[C@@H]1O[C@H](COS(=O)(=O)NC(=O)c2ccccc2O)[C@@H](O)[C@H]1O [Compound 23, 5′-O-[N-(2-Hydroxybenzoyl)sulfamoyl]-2-iodoadenosine Triethylammonium Salt]",fold increase in potency / binding affinity (KI^app) relative to 6,[1],2 fold
5′-O-[N-(salicyl)sulfamoyl]adenosine [Compound 6],stability in human liver microsomes,[2],stable
same,IC50,[3],> 100000 nM
same,stability in human plasma,[4],stable
O=C(O)c1ccccc1O [salicylic acid],ΔG^0 (free energy of binding),[5],-7.9 kcal/mol
same,KA(Sal),[5]; association constant with MbtA,664000 M⁻¹
same,ΔH(Sal),[5]; enthalpy with MbtA,-6.77 kcal/mol
same,Kd,[5]; weak ligand for ITC displacement,1630 ± 520 nM
"CCN(CC)CC.O=C(NS(=O)(=O)OC[C@H]1O[C@@H](n2cnc3c(NC4CC4)ncnc32)[C@H](O)[C@@H]1O)c1ccccc1O [Compound 16, N^6-Cyclopropyl-5′-O-[N-(2-hydroxybenzoyl)sulfamoyl]adenosine Triethylammonium Salt]",fold increase in potency / binding affinity (KI^app) relative to 6,[1],3.5 fold
same,enhancement in selectivity S relative to Sal-AMS 6,[6],16 fold
"CC(C)CNc1ncnc2c1ncn2[C@@H]1O[C@H](COS(=O)(=O)[N-]C(=O)c2ccccc2O)[C@@H](O)[C@H]1O.[Na+] [Compound 15, 5′-O-[N-(2-Hydroxybenzoyl)sulfamoyl]-N^6-isobutyladenosine Sodium Salt]",fold loss of potency (KI^app) relative to 6,[1],1140 fold
"CCN(CC)CC.CN(C)c1ncnc2c1ncn2[C@@H]1O[C@H](COS(=O)(=O)NC(=O)c2ccccc2O)[C@@H](O)[C@H]1O [Compound 10, 5′-O-[N-(2-Hydroxybenzoyl)sulfamoyl]-N^6,N^6′-dimethyladenosine Triethylammonium Salt]",fold activity difference between N-6-dimethyl 10 and N-6-methyl 11,[1]; 10 versus 11,~ 238 fold
same,fold loss of potency (KI^app) relative to 6,[1],58 fold
Nc1ncnc2c1ncn2[C@@H]1O[C@H](COS(=O)(=O)NC(=O)[C@@H](N)CS)[C@@H](O)[C@H]1O [cysteyl-AMS],Ki,[7],240 nM
"CCN(CC)CC.Nc1nc(C#Cc2ccccc2)nc2c1ncn2[C@@H]1O[C@H](COS(=O)(=O)NC(=O)c2ccccc2O)[C@@H](O)[C@H]1O [Compound 25, 5′-O-[N-(2-Hydroxybenzoyl)sulfamoyl]-2-(phenylethynyl)adenosine Triethylammonium Salt]",fold increase in potency / binding affinity (KI^app) relative to 6,[1],17 fold
"CCN(CC)CC.O=C(NS(=O)(=O)OC[C@H]1O[C@@H](n2cnc3c(=O)[nH]cnc32)[C@H](O)[C@@H]1O)c1ccccc1O [Compound 9, 5′-O-[N-(2-Hydroxybenzoyl)sulfamoyl]inosine Triethylammonium Salt]",fold loss of potency (KI^app) relative to 6,[1],121 fold
"CCN(CC)CC.Nc1ncnc2c1ccn2[C@@H]1O[C@H](COS(=O)(=O)NC(=O)c2ccccc2O)[C@@H](O)[C@H]1O [Compound 7, 7-Deaza-5′-O-[N-(2-hydroxybenzoyl)sulfamoyl]adenosine Triethylammonium Salt]",fold loss of potency (KI^app) relative to 6,[1],4 fold
"CCN(CC)CC.Nc1nc(-c2ccccc2)nc2c1ncn2[C@@H]1O[C@H](COS(=O)(=O)NC(=O)c2ccccc2O)[C@@H](O)[C@H]1O [Compound 26, 5′-O-[N-(2-Hydroxybenzoyl)sulfamoyl]-2-phenyladenosine Triethylammonium Salt]",ΔG^0,[8],-17.5 kcal/mol
same,ΔH,[8]; [10],-15.9 ± 0.6 kcal/mol
same,−TΔS,[8]; [10],-1.6 ± 1.4 kcal/mol
NNC(=O)c1ccncc1 [isoniazid],MIC99,[9],0.18 µM
"O=C([N-]S(=O)(=O)OC[C@H]1O[C@@H](n2cnc3c(NC4CCC4)ncnc32)[C@H](O)[C@@H]1O)c1ccccc1O.[Na+] [Compound 17, N^6-Cyclobutyl-5′-O-[N-(2-hydroxybenzoyl)sulfamoyl]adenosine Sodium Salt]",fold loss of potency (KI^app) relative to 6,[1],124 fold
"Nc1ncnc2c1ncn2[C@@H]1O[C@H](COP(=O)(O)O)[C@@H](O)[C@H]1O [AMP, adenosine monophosphate]",ΔG^0 (free energy of binding),[5],-5.0 kcal/mol
"Nc1nc(-c2ccccc2-c2ccccc2)nc2c1ncn2[C@@H]1O[C@H](COS(=O)(=O)[N-]C(=O)c2ccccc2O)[C@@H](O)[C@H]1O.[Na+] [Compound 27, 2-(Biphen-2-yl)-5′-O-[N-(2-hydroxybenzoyl)sulfamoyl]adenosine Sodium Salt]",fold loss in potency compared to 26,[1]; 27 compared to 26,174 fold
